According to publication PMC10930102 (Journal of Enzyme Inhibition and Medicinal Chemistry, 2024):
Entries after “also recorded” stand apart in the source; their conditions may differ.

Columns and labels:
[1] = system: phosphorylation level of Y1604 on ALK; assay: Western blot of ALK phosphorylation in H2228 cells; assay type: cell-based, human; settings: 6 h, 3b 2 µM, 3c 4 µM
From the text: (§1) Figure 4. Effect of test compounds on H2228 cells. […] (A) Western blots of phosphorylated tyrosine residue 1640 on ALK as well as acetylated (Ac) α-tubulin and histone H3 with their corresponding total proteins for normalisation. GAPDH was used as a loading control. (B) Quantification of western blotting results using Image J. Error bars indicate ± S.D.E. *p-Value ≤ 0.05, **p-value ≤ 0.01, ***p-value ≤ 0.001.
(§2) Treated cells were washed three times with ice-cold phosphate-buffered saline and lysed in lysis buffer containing 100 mM Tris-HCl, 12 mM sodium deoxycholate, 12 mM sodium lauroylsarcosinate, and protease inhibitor cocktail (BioTools). Cells were heated in lysis buffer at 95 °C for 5 min and then the cell membrane was broken up by sonication (Bioruptor). Cellular debris and unbroken cells were removed by centrifugation (12,500 × g for 30 min, 4 °C). Protein concentration was determined using the bicinchoninic acid assay (Thermo). Cell extracts (20 μg) were resolved by 12% sodium dodecyl sulfate-polyacrylamide gel electrophoresis (SDS-PAGE), transferred to PVDF membranes, and probed separately with antibodies for Ac-histone H3, Ac-α-tubulin, histone H3, α-tubulin, HDAC1, HDAC6, HDAC8 and GAPDH. The antibodies of GAPDH, HDAC1, and HDAC8 were purchased from ABclonal and all other antibodies were from Cell Signalling Technology. Antibody signals were detected using an enhanced chemiluminescence system.

MCF7 = assay: SRB antiproliferation assay; assay type: cell-based; settings: Homo sapiens, 48 h, read-out: Antiproliferative activity (IC50) MCF7
[2] = system: acetylated histone H3, a substrate of class I HDAC; assay: Western blot of acetylated histone H3 in H2228 cells; assay type: cell-based, human; settings: 6 h, 3b 2 µM
From the text: as §1
as §2, with “The antibodies of GAPDH, HDAC1, and HDAC8 were purchased from ABclonal and all other antibodies were from Cell Signalling Technology.” left out

A549 = assay: SRB antiproliferation assay; assay type: cell-based; settings: Homo sapiens, 48 h, read-out: Antiproliferative activity (IC50) A549
JAK2 = biological target: T1, JAK2 (Homo sapiens, UniProt O60674); assay: RTK in vitro enzymatic assay; assay type: biochemical; settings: 20 μM ATP
T1 construct: purchased Reaction Biology Corporation

[3] = system: human A549 tumour xenografts; assay: Human A549 tumour xenograft model; assay type: in vivo
Protocol: […]. Xenografts were implanted by subcutaneous injection of A549 cells and then treatment with various dosages of 3b (0, 5, 10, 20 mg/kg by intraperitoneal injection once daily for 21 days) was initiated when tumour size was 10–20 mm^3. […] Moreover, tumour suppression continued for an additional 10 days after treatment was suspended.
The procedure for establishing tumour xenografts and the dosing of 3b were carried out in accordance with the National Taiwan University College of Medicine Laboratory Animal Centre ([…]) care and use committee. Female nude mice (BALB/cAnN.Cg-Foxn1nu/CrlNarl, 6–8 weeks old) were purchased from the National Laboratory Animal Centre (Taiwan). Mice were implanted subcutaneously in the right flank with 1 × 10^7 A549 cells (human NSCLC, in 1:1 PBS/Geltrex, 200 μL). Treatments were initiated when tumours were 10–20 mm^3 and continued for 21 consecutive days. Mice were randomly assigned to cohorts (n = 5 per group). Compound 3b (10 mg/kg) or vehicle (PBS + 5% DMSO + 10% Pharmasolve) was administered once daily (qd) via intraperitoneal (i.p.) injection. Tumour volume and body weight were assessed daily for 31 days from initiation of treatment. Calliper measurements of tumours were converted to mean tumour volume using the formula: 0.5 × (length × width[2]).

ALK L1196M = biological target: T2, ALK L1196M (Homo sapiens, UniProt Q9UM73, L1196M); assay: ALK mutant in vitro enzymatic assay; assay type: biochemical; settings: 20 μM ATP
T2 construct: purchased Reaction Biology Corporation

c-Src = biological target: T3, c-Src (Homo sapiens, UniProt P12931); assay: RTK in vitro enzymatic assay; assay type: biochemical; settings: 20 μM ATP
T3 construct: purchased Reaction Biology Corporation

CYP2C19 = biological target: T4, CYP2C19 (Homo sapiens, UniProt P33261); assay: CYP450 inhibition assay; assay type: in vitro ADME; settings: human recombinant enzyme
T4 construct: purchased Reaction Biology Corporation; host or cells: CYP cDNA baculovirus expression systems
Protocol: Assays were performed by Reaction Biology Corporation. […] CYP assays used human recombinant CYP1A2, CYP2C9, CYP2C19, CYP2D6, and CYP3A4 expressed in CYP cDNA baculovirus expression systems. […] Substrates used were 3-cyano-7-ethoxycoumarin for CYP1A2, 2C19, and 2D6; Vivid OOMR Substrate for CYP2C9; and Vivid BOMR Substrate for CYP3A4. hERG inhibition assays involved a binding competition between the tested compounds and a fluorescently labelled compound tracer (Predictor hERG Tracer Red) for membrane-bound hERG (Predictor hERG Membrane). E-4031 served as the positive control.

CYP2D6 = biological target: T5, CYP2D6 (Homo sapiens, UniProt P10635); assay: CYP450 inhibition assay; assay type: in vitro ADME; settings: human recombinant enzyme
T5 construct: purchased Reaction Biology Corporation; host or cells: CYP cDNA baculovirus expression systems

CYP3A4 = biological target: T6, CYP3A4 (Homo sapiens, UniProt P08684); assay: CYP450 inhibition assay; assay type: in vitro ADME; settings: human recombinant enzyme
T6 construct: purchased Reaction Biology Corporation; host or cells: CYP cDNA baculovirus expression systems

ALK = biological target: T7, ALK (Homo sapiens, UniProt Q9UM73); assay: ALK in vitro enzymatic assay (radioisotope P81 filter-binding, Reaction Biology); assay type: biochemical; settings: 20 μM ATP; ten-dose IC50 mode, duplicate, average
T7 construct: purchased Reaction Biology Corporation

ALK G1202R = biological target: T8, ALK G1202R (Homo sapiens, UniProt Q9UM73, G1202R); assay: ALK mutant in vitro enzymatic assay; assay type: biochemical; settings: 20 μM ATP
T8 construct: purchased Reaction Biology Corporation
T8 sequence (Q9UM73 19-1620 G1202R): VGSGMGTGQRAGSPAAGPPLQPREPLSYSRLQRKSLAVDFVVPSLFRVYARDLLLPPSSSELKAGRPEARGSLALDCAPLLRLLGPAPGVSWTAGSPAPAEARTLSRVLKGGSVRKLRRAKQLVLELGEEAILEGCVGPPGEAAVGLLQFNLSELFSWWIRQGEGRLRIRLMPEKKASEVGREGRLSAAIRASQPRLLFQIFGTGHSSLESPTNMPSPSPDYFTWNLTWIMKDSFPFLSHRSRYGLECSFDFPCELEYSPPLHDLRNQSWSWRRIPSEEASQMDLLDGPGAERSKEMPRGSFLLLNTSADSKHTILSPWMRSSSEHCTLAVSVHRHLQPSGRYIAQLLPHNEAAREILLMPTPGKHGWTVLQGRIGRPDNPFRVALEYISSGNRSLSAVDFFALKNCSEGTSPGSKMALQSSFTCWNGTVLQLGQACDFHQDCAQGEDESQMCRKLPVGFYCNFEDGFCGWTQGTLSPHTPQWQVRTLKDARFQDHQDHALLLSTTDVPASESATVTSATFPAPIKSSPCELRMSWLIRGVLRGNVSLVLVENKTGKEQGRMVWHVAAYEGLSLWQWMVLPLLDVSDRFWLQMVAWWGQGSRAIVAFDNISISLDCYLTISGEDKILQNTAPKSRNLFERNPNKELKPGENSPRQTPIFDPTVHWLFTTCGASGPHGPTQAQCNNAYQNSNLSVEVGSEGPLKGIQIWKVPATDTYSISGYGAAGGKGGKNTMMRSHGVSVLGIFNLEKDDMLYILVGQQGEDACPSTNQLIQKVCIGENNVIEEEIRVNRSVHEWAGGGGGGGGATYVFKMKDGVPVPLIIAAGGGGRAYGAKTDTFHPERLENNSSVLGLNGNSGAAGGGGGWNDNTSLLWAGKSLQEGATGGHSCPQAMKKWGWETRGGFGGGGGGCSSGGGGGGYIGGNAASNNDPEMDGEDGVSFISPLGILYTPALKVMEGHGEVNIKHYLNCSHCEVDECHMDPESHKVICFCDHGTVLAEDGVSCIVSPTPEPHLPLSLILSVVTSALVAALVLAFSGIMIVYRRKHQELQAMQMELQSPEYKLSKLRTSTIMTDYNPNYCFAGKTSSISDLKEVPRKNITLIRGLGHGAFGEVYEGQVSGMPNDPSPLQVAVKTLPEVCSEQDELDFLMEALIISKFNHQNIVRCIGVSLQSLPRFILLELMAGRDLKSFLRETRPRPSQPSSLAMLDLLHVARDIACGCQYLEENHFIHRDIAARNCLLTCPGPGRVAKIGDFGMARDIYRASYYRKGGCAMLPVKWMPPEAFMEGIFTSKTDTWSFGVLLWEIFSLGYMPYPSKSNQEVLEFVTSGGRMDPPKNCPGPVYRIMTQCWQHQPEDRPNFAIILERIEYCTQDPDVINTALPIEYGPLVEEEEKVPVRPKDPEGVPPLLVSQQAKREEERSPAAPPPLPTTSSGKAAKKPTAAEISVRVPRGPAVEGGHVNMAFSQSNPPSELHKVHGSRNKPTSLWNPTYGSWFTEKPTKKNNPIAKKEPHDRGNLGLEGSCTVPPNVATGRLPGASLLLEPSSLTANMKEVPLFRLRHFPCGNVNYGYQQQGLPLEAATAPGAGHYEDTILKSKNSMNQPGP

T3 sequence (P12931 whole entry): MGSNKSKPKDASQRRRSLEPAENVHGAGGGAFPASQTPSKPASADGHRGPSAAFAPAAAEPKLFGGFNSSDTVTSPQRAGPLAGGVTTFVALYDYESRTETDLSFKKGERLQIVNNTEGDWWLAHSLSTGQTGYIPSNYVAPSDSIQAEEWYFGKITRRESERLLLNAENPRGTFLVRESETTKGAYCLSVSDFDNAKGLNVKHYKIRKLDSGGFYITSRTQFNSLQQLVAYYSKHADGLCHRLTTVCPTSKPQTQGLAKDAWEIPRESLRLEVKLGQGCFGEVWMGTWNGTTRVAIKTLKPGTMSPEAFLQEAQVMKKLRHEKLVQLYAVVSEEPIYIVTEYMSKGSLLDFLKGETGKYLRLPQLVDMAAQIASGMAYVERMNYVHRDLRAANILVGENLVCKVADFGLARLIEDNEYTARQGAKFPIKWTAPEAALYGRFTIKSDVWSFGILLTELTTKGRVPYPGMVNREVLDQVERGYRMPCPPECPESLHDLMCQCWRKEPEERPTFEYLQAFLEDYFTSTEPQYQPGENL
T4 sequence (P33261 whole entry): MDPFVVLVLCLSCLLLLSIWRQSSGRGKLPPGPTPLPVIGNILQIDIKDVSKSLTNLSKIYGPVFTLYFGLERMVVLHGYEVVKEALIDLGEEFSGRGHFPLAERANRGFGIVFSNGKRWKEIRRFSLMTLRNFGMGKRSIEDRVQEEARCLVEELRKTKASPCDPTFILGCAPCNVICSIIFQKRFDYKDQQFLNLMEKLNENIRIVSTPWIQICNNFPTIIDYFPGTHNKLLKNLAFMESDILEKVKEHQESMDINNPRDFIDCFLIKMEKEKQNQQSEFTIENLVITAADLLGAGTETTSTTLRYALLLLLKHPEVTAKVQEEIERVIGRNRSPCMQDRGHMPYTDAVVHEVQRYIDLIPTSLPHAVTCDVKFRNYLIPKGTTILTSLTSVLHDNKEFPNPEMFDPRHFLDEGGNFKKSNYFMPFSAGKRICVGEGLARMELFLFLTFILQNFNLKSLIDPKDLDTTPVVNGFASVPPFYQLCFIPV
T1 sequence (O60674 whole entry): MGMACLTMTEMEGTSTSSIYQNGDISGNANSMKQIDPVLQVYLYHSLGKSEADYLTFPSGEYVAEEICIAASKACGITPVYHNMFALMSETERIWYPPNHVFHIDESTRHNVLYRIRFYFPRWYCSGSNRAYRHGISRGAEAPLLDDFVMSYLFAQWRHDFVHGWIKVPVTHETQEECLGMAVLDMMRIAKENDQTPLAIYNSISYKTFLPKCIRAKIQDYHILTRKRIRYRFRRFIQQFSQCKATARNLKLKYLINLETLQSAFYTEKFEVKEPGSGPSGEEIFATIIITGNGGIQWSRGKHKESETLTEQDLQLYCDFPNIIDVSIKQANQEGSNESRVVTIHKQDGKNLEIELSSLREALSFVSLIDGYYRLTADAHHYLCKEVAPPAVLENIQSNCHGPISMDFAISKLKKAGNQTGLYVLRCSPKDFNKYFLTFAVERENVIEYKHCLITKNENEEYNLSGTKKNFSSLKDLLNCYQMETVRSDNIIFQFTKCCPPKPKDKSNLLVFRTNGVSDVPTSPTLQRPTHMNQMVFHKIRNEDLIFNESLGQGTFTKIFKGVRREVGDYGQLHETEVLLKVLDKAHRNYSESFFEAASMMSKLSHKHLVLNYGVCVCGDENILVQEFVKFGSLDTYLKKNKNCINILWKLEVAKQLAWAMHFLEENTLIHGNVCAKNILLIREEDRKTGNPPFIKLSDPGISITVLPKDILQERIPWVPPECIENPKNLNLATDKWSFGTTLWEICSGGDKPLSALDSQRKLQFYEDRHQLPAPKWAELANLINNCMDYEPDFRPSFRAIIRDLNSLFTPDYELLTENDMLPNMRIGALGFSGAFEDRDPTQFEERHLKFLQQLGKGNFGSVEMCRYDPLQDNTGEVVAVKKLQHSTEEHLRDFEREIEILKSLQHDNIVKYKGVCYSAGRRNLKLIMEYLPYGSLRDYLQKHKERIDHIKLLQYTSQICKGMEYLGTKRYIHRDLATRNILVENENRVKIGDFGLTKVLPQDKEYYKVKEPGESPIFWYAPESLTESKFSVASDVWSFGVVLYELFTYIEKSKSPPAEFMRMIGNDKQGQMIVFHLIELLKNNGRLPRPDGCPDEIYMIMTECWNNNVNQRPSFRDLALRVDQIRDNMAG
T2 sequence (Q9UM73 19-1620 L1196M): as the sequence (Q9UM73 19-1620 G1202R) above, with L1178M, R1184G counted along it
T6 sequence (P08684 whole entry): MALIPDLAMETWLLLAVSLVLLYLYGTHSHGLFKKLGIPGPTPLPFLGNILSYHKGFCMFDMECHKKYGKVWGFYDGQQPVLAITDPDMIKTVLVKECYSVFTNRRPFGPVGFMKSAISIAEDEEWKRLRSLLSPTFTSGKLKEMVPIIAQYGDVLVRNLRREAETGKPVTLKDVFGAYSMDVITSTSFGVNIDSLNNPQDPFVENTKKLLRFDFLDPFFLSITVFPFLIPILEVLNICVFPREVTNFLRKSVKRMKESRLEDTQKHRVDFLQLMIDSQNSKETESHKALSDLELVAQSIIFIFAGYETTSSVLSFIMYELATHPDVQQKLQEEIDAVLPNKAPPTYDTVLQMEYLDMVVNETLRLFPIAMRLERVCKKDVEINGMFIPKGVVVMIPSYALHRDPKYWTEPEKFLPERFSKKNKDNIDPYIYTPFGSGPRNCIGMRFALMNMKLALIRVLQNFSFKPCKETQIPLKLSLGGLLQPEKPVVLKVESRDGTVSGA
T5 sequence (P10635 whole entry): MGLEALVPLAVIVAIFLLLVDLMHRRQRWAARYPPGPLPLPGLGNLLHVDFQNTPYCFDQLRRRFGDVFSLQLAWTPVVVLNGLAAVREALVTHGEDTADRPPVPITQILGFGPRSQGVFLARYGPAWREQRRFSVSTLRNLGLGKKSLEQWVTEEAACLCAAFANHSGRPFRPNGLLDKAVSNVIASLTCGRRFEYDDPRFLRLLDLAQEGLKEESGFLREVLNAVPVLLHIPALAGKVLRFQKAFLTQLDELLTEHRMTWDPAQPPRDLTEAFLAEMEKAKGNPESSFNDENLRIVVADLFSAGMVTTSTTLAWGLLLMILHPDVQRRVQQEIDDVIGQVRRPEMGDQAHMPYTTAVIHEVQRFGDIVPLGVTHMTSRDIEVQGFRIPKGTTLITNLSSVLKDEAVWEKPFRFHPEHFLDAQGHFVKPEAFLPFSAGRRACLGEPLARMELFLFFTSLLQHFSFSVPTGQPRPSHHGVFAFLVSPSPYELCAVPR
T7 sequence (Q9UM73 19-1620): as the sequence (Q9UM73 19-1620 G1202R) above, with R1184G counted along it

What does the source list for CC(C)NC(=O)C1CCC(n2c(=NC(=O)c3ccccc3)[nH]c3cc(C=CC(=O)NO)ccc32)CC1 [Compound 3b, (E)-N-(5-((E)-3-(Hydroxyamino)-3-oxoprop-1-en-1-yl)-1-((1S,4S)-4-(isopropylcarbamoyl)cyclohexyl)-1H-benzo[d]imidazol-2(3H)-ylidene)benzamide]?
phosphorylation level of Y1604 on ALK [1]: significantly decreased; IC50 (MCF7): 0.55 ± 0.01 µM; acetylated histone H3 level [2]: slightly increased; IC50 (A549): 0.33 ± 0.03 µM; IC50 (JAK2): > 10 µM; effect on tumour volume ([3]; 5 mg/kg i.p. once daily for 21 days): no significant effect; decrease in mean tumour volume ([3]; 10 mg/kg i.p. once daily for 21 days, day 21 of treatment): 68%; decrease in mean tumour volume ([3]; 10 mg/kg i.p. once daily for 21 days, day 31 (10 days after treatment suspended)): 80%; decrease in mean tumour volume ([3]; 20 mg/kg i.p. once daily for 21 days, day 21 of treatment): 85%; decrease in mean tumour volume ([3]; 20 mg/kg i.p. once daily for 21 days, day 31 (10 days after treatment suspended)): 86%; mean body weight ([3]; 5, 10, 20 mg/kg i.p. once daily for 21 days, any treatment group): negligible effect; also recorded: not significantly affected; IC50 (ALK L1196M): 0.0049 µM; IC50 (c-Src): 3.38 µM; IC50 (CYP2C19): 7.86 µM; IC50 (CYP2D6): > 10 µM; IC50 (CYP3A4): 9.37 µM; IC50 (ALK): 0.016 µM; IC50 (ALK G1202R): 0.051 µM
